Measurements taken from a melting point compilation (Tetko et al.; mined from patent text by program, amines drawn as free bases though some values may be those of a salt).

Structure (SMILES) | melting point
CS(=O)(=O)c1ccc(C(=O)C2C(=O)CCCC2=O)c(Cl)c1C1=NOC(Cc2ccccc2)C1 (centres undefined) | 72 to 76 °C
O=C(O)c1cc(Br)cnc1Cl | 174 to 177 °C
CCOC(=O)c1cc(C(=O)OCC)cc([N+](=O)[O-])c1 | 83.5 °C
O=C1CCCc2ccc(OCc3ccc(Cl)c(Cl)c3)cc21 | 122 to 123 °C
Cc1cc(-c2cc(C(F)F)n3ncc(C(=O)Nc4nc(C)c(S(=O)(=O)NC(C)(C)CO)s4)c3n2)ccc1C(F)(F)F | 271 °C
Cc1ccc(NC(=O)OC2CN3CCC2CC3)cc1 (centres undefined) | 186 to 188 °C
CC1(C)OCc2c1nc1ccccc1c2Cl | 108 to 110 °C
O=S(=O)(CC1CC1)c1nc[nH]n1 | 140 to 149 °C
BrC=C1c2ccccc2CCc2ccccc21 | 73.6 °C
Cc1ccc(-c2cc(C(F)F)nn2-c2ccc(S(N)(=O)=O)c(F)c2)cc1Cl | 160 to 161 °C
CC(=O)OC[C@H]1OC(O)(Cl)[C@H](NC(=O)c2cccnc2)[C@@H](OC(C)=O)[C@@H]1OC(C)=O (some centres undefined) | 175 to 176 °C
C[C@H](NC(=O)[C@@H](Cc1ccccc1)NS(=O)(=O)Cc1ccccc1)C(=O)NC1CCc2nc(N)sc2C1 (some centres undefined) | 122 to 125 °C
COC(=O)c1ccc(-c2nc3cc(Cl)c(Cl)cc3[nH]2)cc1 | 240 to 250 °C
COc1ccc2[nH]cc(CCCNCC3COc4ccccc4O3)c2c1 (centres undefined) | 135 to 136 °C
Nc1nc(N)c2cc(Cc3ccc4ccccc4c3)ccc2n1 | 256 to 257 °C
CCCn1cc2c(C3C(=O)Nc4ccc(Br)cc43)nc(NCCc3ccccn3)nc2n1 (centres undefined) | 283 to 291 °C
COC(=O)c1cc(-c2ccc(C)cc2)n(-c2ccc(S(N)(=O)=O)cc2)n1 | 138 to 139 °C
Cc1nc(-c2cc3cc(OCCNC[C@H](O)c4cccc(Cl)c4)ccc3o2)no1 | 88 to 92 °C
CC1(C)Oc2ccc(C#N)cc2[C@@H](NC(=O)CCl)[C@@H]1O (relative stereo) | 196 to 197 °C
CCCCCCCCCCCCCCCCCCOc1cc(N)cc(OCCCOc2ccccc2)c1 | 74 to 76 °C
CC(=O)Oc1ccc(C2(c3ccc(OC(C)=O)cc3)C(Cl)(Cl)C23CCCCC3)cc1 | 162 to 163 °C
CC(=O)Oc1cccc(CCNC(=O)/C=C/c2cccnc2)c1 | 99 °C
CC(C)c1ccc(C(=O)CCCCl)cc1 | 35 to 37 °C
Cc1nc(-c2cccc(NC(=O)N3CCc4c(cnc5[nH]nc(Br)c45)C3)c2)no1 | > 152 °C
Fc1cc(F)c(-c2c(Cl)nc3nc(SCc4ccccc4)nn3c2Cl)c(F)c1 | 106 °C

Structure (SMILES) | melting point
CC(C)On1c(C2CCCCC2)nc2c(N)nc3ccccc3c21 | 175 to 178 °C
CNC(=O)c1c(OC(C)C)c2cc(OC)ccc2n1C | 85 to 86 °C
O=C(O)COc1ccc(CCc2nc(-c3ccccc3)c(-c3ccccc3)o2)cc1 | 147 to 149 °C
COc1ccc2sc(C(=O)O)nc2c1[N+](=O)[O-] | 140 to 142 °C
CCCn1c(=O)n(CC(C)O)c(=O)c2[nH]c(C34CC5CC(CC3C5)C4)nc21 (centres undefined) | 195 to 197 °C
COC(=O)CCCCCCCCOC1OC(CO)C(O)C(O)C1O (centres undefined) | 104 to 105 °C
OCc1cnc2c(F)c(F)c(F)cc2c1-c1cccs1 | 126 to 128 °C
Cc1cn(-c2cc(NC(=O)c3cccc4cc(O)ccc34)cc(C(F)(F)F)c2)cn1 | 169 to 172 °C
CCOC(=O)C(=CNc1nonc1C)C(=O)c1cc(F)c(Cl)nc1Cl | 139 to 142 °C
Cc1ncc(-c2ccc(Cl)cc2)cc1C#N | 158 to 159 °C
COc1ccc(-c2ccc(C(=O)Nc3cc4ncc(CN5CCCCCC5)cc4cc3C)c(F)c2)cc1 | 168 °C
CCCn1nc2oc(=O)cc(C)c2c1C | 108 to 110 °C
Fc1ccc(Oc2cc3c(Cl)nc(Cl)nc3cn2)c(F)c1 | 144 to 146 °C
CCn1cc(C(=O)O)c(=O)c2cnc(N3CCN(C)CC3)nc21 | 232 to 233 °C
Cc1cc(C(=O)NCC(N)=O)cc(-c2cccc3cc(Cc4cccc(C(F)(F)F)c4)sc23)n1 | 183 to 184 °C
Cc1cc(Cl)nn2c(-c3ccnc4c3ccn4S(=O)(=O)c3ccccc3)c(-c3ccc(F)cc3)nc12 | 226 to 228 °C
CN1CCN(c2cccc3ccc(-c4cccc(F)c4)cc23)CC1 | 116 °C
C=CCn1c(SCc2cnn(-c3c(Cl)cc(C(F)(F)F)cc3Cl)n2)nc(C#N)c1C#N | 125 to 127 °C
COc1ccc(-n2cnnc2C(C)O)cc1 (centres undefined) | 170 °C
N#Cc1ccc(C=Cc2ncn(CC(O)(Cn3cncn3)c3ccc(F)cc3F)n2)cc1 (centres undefined) | 189 to 191 °C
CC1Cc2c(n(-c3ccccc3)c3ncccc3c2=O)O1 (centres undefined) | 207 to 209 °C
COc1cc(C(C)=O)ccc1OCCN1CCC(c2noc3cc(F)ccc23)CC1 | 132 to 134 °C
CCCc1c(COc2ccc(Cc3nnn(CC(=O)O)n3)cc2)ccc(C(C)=O)c1O | 87 to 90 °C
CCCCCCCCCCOc1cc2oc3c(C(=O)OCC)cccc3c(=O)c2cc1CCC(=O)OCC | 61 to 63 °C
CN1CC[C@@H]2CC(=O)c3cc(-c4ccccc4)ccc3[C@@H]2C1 (relative stereo) | > 250 °C

Structure (SMILES) | melting point
COC(=O)C1=CC(C)(N)NC(C2CC2)=N1 (centres undefined) | 152 to 153 °C
CC(=O)Nc1c(C(=O)c2ccc(OC(F)(F)F)cc2)[nH]c2cc(Cl)ccc12 | 213 to 214 °C
CN1C(=O)C(C2=COc3ccccc3O2)=C(c2c[nH]c3ccc(F)cc23)C1=O | 229 °C
CCCCCCCN(CCCCCSc1nc(-c2ccccc2)c(-c2ccccc2)[nH]1)C(=N)Nc1ccccc1 | 135 to 136 °C
COc1ccccc1N(C)[C@@H](C)[C@H](O)c1ccccc1 | 84 to 86 °C
COC=C(C(=O)OC)N(C)c1cccc(-c2ccc(Cl)cc2)n1 | 135 °C
NC(=O)c1ccc(C(N)=O)c(CC(O)CO)c1 (centres undefined) | 194 °C
O=C(Nc1ccccc1)c1ccc(Nc2ccccc2)nc1 | 264 to 266 °C
COc1cc(N)c(Cl)cc1C(=O)NCC1CCN(CCCC(=O)c2ccccc2)CC1 | 148 to 150 °C
Nc1nc(/C(=N/OC23CC4CC(CC(C4)C2)C3)C(=O)O)cs1 | 203 to 204 °C
CC(=NO)c1cccc(C(F)(F)F)c1 | 63 to 65 °C
NS(=O)(=O)c1ccc(-c2noc(-c3cnn4c(C(F)(F)F)cc(-c5ccc(Cl)cc5)nc34)n2)cc1 | 296 °C
Cn1c(Nc2cc(C(F)(F)F)ccc2Cl)nc(C(F)(F)F)cc1=O | 158 to 159 °C
O=C(NCC12CC3CC(CC(C3)C1)C2)c1cc(-c2ncccc2OCc2nnn[nH]2)ccc1Cl | 122 to 126 °C
CC1(C)[C@@H]2[C@H]1[C@@H](O)O[C@H]2C(Cl)(Cl)Cl | 100 to 105 °C
CN(C)CCSc1ccc2ccc(N)nc2n1 | 174 °C
CN1CC(c2ccc(S(C)(=O)=O)cc2)=C(c2ccc(Cl)cc2)C1=O | 129 to 131 °C
COC(=O)[C@@H]1OC(c2ccc(O)c(OC)c2)O[C@H]1C(=O)OC | 88 to 90 °C
CC(C)c1ccc(-c2csc(-c3ccc(C(=O)O)cc3)n2)cc1 | 257 to 258 °C
O=C(Nc1ccccc1)Nc1ccccn1 | 186 to 188 °C
CCCNC(=O)C(C)Cc1ccc2cccc(Cc3ccc(C(=O)O)cc3OC)c2c1 (centres undefined) | 199 to 200 °C
O=C(O)CC1=Cc2ccccc2C1 | 114 to 115 °C
COCC(=O)Nc1ccc2ncnc(Nc3cccc(I)c3)c2c1 | 159 to 163 °C
CNC(=O)c1ccc(-c2cnc3[nH]c(=O)n(CC4CCCCC4)c3n2)cc1 | 273 to 275 °C
COc1cc(C)cc2nc(SCc3ccccc3)nn12 | 85 to 87 °C

Structure (SMILES) | melting point
COc1cc2c(c(C)c1OC)CC(C)CC2=O (centres undefined) | 106 to 108 °C
O=c1[nH]c2ccc(-c3cccc(Cl)c3)cc2s1 | 195 to 196 °C
CS(=O)(=O)c1csc(C(=O)C2C(=O)N(C(N)=O)c3ccc(Cl)cc32)c1 (centres undefined) | 228 to 230 °C
CN(C(=O)c1ccccc1)c1cccc(-c2nc(=O)c3ccccc3s2)n1 | 234 to 235 °C
CC1(CN2CCC(C(=O)c3ccc(C(F)(F)F)cc3)CC2)Cn2cc([N+](=O)[O-])nc2O1 (centres undefined) | 172 to 174 °C
Nc1c2c(nc3ccccc13)CCCC2N1CCOCC1 (centres undefined) | 215 to 217 °C
Cc1nnc(-c2ccc(CN3C(=O)C4(COc5cc6c(cc54)CCO6)c4ccccc43)cc2)[nH]1 (centres undefined) | 169 to 180 °C
COc1cc(N2CCCN(C[C@H](O)CO)CC2)ccc1Nc1ncc2ccc(-c3ccccc3N(C)S(C)(=O)=O)n2n1 | 93 to 99 °C
N#Cc1cnc2cc(-c3csc(CN4CCOCC4)c3)ccc2c1Nc1ccc(Cc2ccccc2)cc1 | 228 to 230 °C
CCn1c(=O)c2cc(C(=O)O)cn2c2cc(Cl)ccc21 | 322 to 326 °C
O=S(=O)(O)CCCNC1CCCC1 | 280 to 282 °C
N#CC(C#N)=CN(N=C(C#N)C#N)c1ccc(C#N)cc1 | 231 °C
CCCCCCCCCCCCCCCCCCN1CC(O)C1 | 75.5 to 78 °C
CN(C)CCNC(=O)N1CCN(c2ccc(Cl)c(Cl)c2)CC1 | 80 to 83 °C
O=C1Nc2ccc(F)cc2OC1CCO (centres undefined) | 136 to 138 °C
CCCN(CCC)C1Cn2cnc3cccc(c32)C1C (centres undefined) | 78 to 84 °C
CCOC(=O)/C=C1\CCOc2ccc(N)cc21 | 97 °C
CC(C)C[C@@H](C#N)NC(=O)[C@@H]1CCCC[C@@H]1NC(=O)c1cc2ccccc2n1CCO | 59 to 63.5 °C
CN(C(CCN1C(=O)c2ccccc2C1=O)C(=O)NO)S(=O)(=O)c1ccc(Oc2cccc(Cl)c2)cc1 (centres undefined) | 81 to 84 °C
CCC(O)CNC(=O)c1n[nH]cc1NC(=O)c1ccccn1 (centres undefined) | 202 to 203 °C
CCCN1CCN(Cc2ccc3c(c2O)OCO3)CC1 | 115 to 117 °C
COc1ccc(-c2ccc3c(c2)c2c(C=Cc4ccccc4)ccnc2n3S(=O)(=O)c2ccccc2)cc1 | 190 to 192 °C
COc1cc(Nc2nccc(Nc3ccc(N4CCOCC4)cc3)n2)cc(OC)c1OC | 214 °C
COc1nc2ccc(Br)cc2c2c1C(C)(OCC(O)Cn1ccc(-c3ccc(C(F)(F)F)cc3)n1)c1ccccc1-2 (centres undefined) | 65 to 67 °C
